Results taken from US20040022676A1, “Apparatus and method for controlled delivery of a gas” (Selective Micro Technologies, LLC, priority 2000, published 2004).

What was measured:
biofilm = test: Removal of biofilm from contaminated dental equipment with chlorine dioxide solution
Excerpt: Apparatus 1310 can also be incorporated into a pouch like that depicted in FIG. 15 to generate a desired concentration of gas, e.g., chlorine dioxide, in water. This embodiment is particularly useful in wet applications, e.g., for use in removing biofilm from dental equipment. One such apparatus was constructed and used to generate an aqueous solution containing 50 parts per million chlorine dioxide. It was then emptied into a dental equipment reservoir and allowed to run through the equipment, which was contaminated with biolfilm, and stand overnight. In the morning, the dental equipment was flushed with water. This procedure was repeated the following two nights. The equipment was then tested for the presence of biofilm and the biofilm was diminished. Thereafter, rinsing the equipment once daily with a 5 parts per million solution was adequate to retard the growth of biofilm in the equipment.

microbes = conditions: as low as; cited from earlier work

Compound: [O][Cl+][O-] [chlorine dioxide]
- presence of biofilm in dental equipment after treatment (biofilm; 50 parts per million solution, run through and left overnight, three nights): diminished
- concentration of solution adequate to retard the growth of biofilm (biofilm; rinsing the equipment once daily, after initial treatment): 5 parts per million
- concentration at which effective as disinfectant (microbes): 0.2 mg/L
